Data reported in patent US20260217698A1 (BEYANG THERAPEUTICS CO., LTD., priority 2022, published 2026).
pIC50: −log10 of the molar value. Values after ≈ are worked out from the molar mass of the structure shown.

How the values were obtained:
[1] = Solubility test in buffer, LC-MS; format: physicochemical; conditions: aqueous buffer, thermodynamic from solid, room temperature, shaking 8 h, pH not given (method: pH 2.0, 6.5, 7.4)
Method: Accurately weigh 3 portions of about 2 mg of the compound, and add appropriate volumes of buffers with the pHs of 2.0, 6.5, and 7.4 respectively to obtain a solution with a concentration of 2 mg/mL. After sonication for 10 min, fix them on a shaker and shaking for 8 h at room temperature. After shaking, sonicate for 10 min and centrifuge for 15 min at 13,000 rpm. Pipette 0.1 mL of supernatant into a new tube, shake and rinse it with 5 mL, and discard the liquid. Transfer 0.5 mL of the supernatant again to a new tube, centrifuge it for 15 min at 13,000 rpm, then collect the supernatant (if necessary, dilute with water) and analyze it by LC-MS. The sample concentrations at 3~5 points are subjected to fitting and reticle for quantification.

EGFR = target: T1, EGFR (Homo sapiens, UniProt P00533); assay: Kinase inhibition, Mobility Shift Assay/IMAP, EGFR; format: biochemical
T1 construct: purchased Carna 08-115
T1 sequence (P00533 669-1210 limits assumed): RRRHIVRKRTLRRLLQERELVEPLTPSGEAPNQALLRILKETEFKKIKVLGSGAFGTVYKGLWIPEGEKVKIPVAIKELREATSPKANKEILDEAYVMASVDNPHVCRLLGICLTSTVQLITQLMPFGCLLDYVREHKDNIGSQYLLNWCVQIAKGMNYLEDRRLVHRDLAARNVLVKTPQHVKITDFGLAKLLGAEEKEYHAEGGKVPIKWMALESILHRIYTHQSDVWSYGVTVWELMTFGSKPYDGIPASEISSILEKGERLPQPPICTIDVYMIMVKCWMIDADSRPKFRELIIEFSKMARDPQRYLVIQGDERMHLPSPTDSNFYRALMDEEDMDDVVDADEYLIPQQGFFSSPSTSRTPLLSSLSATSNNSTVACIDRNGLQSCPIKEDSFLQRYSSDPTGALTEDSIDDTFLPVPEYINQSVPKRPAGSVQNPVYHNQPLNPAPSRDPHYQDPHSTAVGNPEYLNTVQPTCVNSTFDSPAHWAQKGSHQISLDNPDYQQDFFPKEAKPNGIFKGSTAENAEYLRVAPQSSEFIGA
Summary of the method: (§1)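 Substrate conversion (phosphorylated vs non-phosphorylated) read by mobility shift on Caliper EZ Reader II and converted to % inhibition relative to no-enzyme and DMSO controls. IC50 fitted from % inhibition versus log compound concentration.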

VEGFR2 = VEGFR2 (Homo sapiens, UniProt P35968); assay: Kinase inhibition, Mobility Shift Assay/IMAP, VEGFR2; format: biochemical; design: purchased Carna 08-191
Chain of VEGFR2 (P35968 790-1356 limits assumed): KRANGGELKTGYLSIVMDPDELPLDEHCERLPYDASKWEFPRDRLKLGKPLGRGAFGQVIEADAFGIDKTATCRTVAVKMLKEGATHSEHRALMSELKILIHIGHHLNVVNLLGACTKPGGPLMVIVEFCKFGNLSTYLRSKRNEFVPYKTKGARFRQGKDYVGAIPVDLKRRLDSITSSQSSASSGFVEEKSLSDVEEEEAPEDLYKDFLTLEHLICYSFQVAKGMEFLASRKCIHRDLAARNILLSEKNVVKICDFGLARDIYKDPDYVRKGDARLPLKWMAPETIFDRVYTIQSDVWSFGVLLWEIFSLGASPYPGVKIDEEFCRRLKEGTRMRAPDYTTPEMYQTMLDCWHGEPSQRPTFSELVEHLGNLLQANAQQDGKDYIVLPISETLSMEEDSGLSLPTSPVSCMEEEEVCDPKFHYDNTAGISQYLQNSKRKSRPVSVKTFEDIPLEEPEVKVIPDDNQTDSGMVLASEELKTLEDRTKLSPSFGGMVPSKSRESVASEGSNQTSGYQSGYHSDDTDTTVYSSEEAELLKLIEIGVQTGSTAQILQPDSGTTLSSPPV
Summary of the method: as §1

TIE2 = target: T2, TIE2 (Homo sapiens, UniProt Q02763); assay: Kinase inhibition, Mobility Shift Assay/IMAP, TIE2; format: biochemical
T2 construct: purchased BPS 40270
T2 sequence (Q02763 23-1124): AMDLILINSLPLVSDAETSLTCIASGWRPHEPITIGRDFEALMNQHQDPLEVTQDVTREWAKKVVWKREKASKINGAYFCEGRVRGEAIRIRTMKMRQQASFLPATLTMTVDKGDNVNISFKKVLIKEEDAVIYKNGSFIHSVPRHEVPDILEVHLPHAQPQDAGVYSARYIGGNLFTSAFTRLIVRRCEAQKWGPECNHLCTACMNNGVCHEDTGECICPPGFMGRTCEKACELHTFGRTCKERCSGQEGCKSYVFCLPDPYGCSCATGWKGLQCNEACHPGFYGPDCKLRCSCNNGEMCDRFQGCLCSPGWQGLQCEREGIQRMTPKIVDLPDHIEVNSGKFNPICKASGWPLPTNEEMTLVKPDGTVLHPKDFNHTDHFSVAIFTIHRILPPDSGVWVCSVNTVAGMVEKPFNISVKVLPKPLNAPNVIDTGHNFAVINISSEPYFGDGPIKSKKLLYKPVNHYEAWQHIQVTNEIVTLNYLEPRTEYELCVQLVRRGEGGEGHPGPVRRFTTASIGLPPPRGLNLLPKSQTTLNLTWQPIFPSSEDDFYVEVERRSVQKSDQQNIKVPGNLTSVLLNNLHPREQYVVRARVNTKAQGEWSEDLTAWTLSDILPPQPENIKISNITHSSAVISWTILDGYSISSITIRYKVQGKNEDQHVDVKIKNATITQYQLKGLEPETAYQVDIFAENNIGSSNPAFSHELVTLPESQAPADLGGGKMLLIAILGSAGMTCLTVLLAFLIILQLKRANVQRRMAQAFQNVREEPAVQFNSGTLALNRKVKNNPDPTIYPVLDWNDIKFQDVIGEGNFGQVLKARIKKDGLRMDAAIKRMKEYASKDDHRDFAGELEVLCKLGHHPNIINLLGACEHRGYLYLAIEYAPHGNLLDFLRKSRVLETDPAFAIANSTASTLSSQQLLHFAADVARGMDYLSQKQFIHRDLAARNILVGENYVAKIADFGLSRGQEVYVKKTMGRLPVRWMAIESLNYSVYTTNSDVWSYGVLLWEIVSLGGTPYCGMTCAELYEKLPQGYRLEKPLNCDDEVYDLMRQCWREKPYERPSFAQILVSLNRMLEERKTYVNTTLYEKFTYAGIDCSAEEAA
Description: (§2) This assay directly monitored the ability of compounds to inhibit kinase phosphorylation by measuring non-phosphorylated and phosphorylated substrates in kinase reactions by using Mobility Shift Assays/IMAP™ analysis.
(§3) Read the conversion ratio data on CaliperEZ Reader II. Convert conversion rates into inhibition ratio data.
(§4) “Min” indicates the readout of the control well without the addition of enzymes; and “Max” indicates the readout of the control well with the addition of DMSO Fit IC50 values with XL Fit excel add-in version […].
(§5) X indicates the log value of compound concentration, and Y indicates the inhibition ratio (% inhibition).

melanin = assay: Binding capacity of compounds to melanin; format: in vitro ADME, cuttlefish (Sepia officinalis); conditions: cuttlefish (Sepia officinalis), melanin suspension (1 mg/mL); 1 mg/mL melanin in PBS pH 7.4, 2 μM compound, 2 h at 37° C.; read-out: Fu % (percentage of free drug)
Summary of the method: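 Compound (2 μM final) incubated with washed Sepia melanin (1 mg/mL, PBS pH 7.4) 2 h at 37° C with shaking; PBS with 0.1% BSA served as blank. Supernatants quantified by LC-MS/MS; bound fraction Fb derived from melanin versus blank concentration.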

VEGFR1 = target: T3, VEGFR1 (Homo sapiens, UniProt P17948); assay: Kinase inhibition, Mobility Shift Assay/IMAP, VEGFR1; format: biochemical
T3 construct: purchased Invitrogen PR6731B
T3 sequence (P17948 27-1338): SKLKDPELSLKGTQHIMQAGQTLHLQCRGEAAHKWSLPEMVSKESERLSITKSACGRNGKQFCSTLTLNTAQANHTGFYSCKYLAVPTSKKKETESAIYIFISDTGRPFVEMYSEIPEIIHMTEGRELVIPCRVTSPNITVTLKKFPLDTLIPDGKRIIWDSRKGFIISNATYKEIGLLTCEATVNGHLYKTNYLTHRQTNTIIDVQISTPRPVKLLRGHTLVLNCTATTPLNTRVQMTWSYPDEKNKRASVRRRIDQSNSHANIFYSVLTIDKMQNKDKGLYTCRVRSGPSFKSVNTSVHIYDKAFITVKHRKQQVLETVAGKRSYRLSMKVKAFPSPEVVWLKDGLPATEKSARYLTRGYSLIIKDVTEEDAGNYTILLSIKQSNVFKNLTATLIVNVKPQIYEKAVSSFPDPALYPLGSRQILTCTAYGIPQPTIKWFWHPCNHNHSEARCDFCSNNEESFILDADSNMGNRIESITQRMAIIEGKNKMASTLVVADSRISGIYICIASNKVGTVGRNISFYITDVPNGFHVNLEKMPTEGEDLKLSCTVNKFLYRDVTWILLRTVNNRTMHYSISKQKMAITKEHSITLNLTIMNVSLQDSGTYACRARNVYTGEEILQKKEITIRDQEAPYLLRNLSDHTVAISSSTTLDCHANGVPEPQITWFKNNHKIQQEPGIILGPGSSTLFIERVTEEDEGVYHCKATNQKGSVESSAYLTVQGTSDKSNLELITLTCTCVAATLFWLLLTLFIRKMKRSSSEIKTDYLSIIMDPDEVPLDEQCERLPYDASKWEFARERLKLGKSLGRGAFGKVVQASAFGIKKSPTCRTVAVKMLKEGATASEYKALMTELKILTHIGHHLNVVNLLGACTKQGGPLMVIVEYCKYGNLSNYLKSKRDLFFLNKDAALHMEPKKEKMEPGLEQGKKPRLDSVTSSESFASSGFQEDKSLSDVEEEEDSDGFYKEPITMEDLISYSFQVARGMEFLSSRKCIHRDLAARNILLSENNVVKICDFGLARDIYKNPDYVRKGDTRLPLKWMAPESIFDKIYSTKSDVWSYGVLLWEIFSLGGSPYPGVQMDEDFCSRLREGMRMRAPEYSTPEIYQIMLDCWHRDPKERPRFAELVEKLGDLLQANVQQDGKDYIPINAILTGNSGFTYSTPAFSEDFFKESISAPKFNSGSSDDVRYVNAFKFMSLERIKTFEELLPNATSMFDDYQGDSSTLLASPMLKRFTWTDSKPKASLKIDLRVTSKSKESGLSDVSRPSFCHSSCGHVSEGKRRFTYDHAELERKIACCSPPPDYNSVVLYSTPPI
Description: as §2, §3, §4, §5

VEGFR3 = target: T4, VEGFR3 (Homo sapiens, UniProt P35916); assay: Kinase inhibition, Mobility Shift Assay/IMAP, VEGFR3; format: biochemical
T4 construct: purchased Invitrogen PV4129
T4 sequence (P35916 25-1363): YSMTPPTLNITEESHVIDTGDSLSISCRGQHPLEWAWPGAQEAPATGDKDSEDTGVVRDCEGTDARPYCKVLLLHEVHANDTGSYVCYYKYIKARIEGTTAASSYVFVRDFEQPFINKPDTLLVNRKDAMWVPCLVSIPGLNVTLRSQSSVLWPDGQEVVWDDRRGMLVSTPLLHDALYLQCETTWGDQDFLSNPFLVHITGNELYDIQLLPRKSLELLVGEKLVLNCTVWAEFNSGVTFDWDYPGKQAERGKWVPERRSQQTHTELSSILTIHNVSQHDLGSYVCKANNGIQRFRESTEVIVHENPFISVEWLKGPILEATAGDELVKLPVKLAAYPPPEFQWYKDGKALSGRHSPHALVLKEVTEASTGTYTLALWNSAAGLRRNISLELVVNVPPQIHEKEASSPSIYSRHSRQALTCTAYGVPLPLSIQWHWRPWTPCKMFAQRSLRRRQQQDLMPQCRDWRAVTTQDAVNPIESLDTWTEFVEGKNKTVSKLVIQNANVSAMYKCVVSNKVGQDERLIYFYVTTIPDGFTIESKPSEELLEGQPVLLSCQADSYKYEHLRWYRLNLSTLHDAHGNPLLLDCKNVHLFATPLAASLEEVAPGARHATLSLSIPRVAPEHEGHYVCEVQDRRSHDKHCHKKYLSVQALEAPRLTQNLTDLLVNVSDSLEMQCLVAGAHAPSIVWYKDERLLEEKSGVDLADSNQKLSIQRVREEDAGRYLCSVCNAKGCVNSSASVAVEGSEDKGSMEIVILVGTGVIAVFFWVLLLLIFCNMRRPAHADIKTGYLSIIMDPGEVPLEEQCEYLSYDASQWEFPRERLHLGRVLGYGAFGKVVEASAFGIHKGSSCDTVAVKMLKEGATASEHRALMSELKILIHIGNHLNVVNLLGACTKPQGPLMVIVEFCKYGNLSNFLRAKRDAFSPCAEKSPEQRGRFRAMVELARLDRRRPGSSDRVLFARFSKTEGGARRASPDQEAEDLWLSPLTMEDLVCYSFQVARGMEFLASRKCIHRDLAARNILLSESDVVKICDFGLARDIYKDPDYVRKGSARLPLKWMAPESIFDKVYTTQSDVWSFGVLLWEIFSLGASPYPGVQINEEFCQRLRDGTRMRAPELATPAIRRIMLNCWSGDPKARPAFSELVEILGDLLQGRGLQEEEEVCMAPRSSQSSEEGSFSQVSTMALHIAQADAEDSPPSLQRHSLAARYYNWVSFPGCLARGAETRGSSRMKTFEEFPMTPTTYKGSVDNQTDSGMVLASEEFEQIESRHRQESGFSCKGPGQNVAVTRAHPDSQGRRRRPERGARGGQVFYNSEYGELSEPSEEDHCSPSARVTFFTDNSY
Description: as §2, §3, §4, §5

Row | Structure (SMILES) | solubility at 8 h [1] | pIC50 (EGFR) | pIC50 (VEGFR2) | pIC50 (TIE2) | fraction unbound at 2 h, 2 μM (melanin) | pIC50 (VEGFR1) | pIC50 (VEGFR3)
1 | Cn1nc(COc2nsc(NC(=O)NCCCCN3CCCC3)c2C(N)=O)cc1Br [Compound T022, 3-((5-bromo-1-methyl-1H-pyrazol-3-yl)methoxy)-5-(3-(4-(pyrrolidin-1-yl)butyl)ureido)isothiazole-4-carboxamide] | 1290 µg/mL (≈ 2570 µM) | – | – | – | – | – | –
2 | COc1cccc(COc2nsc(NC(=O)NCCCCN3CCCC3)c2C(N)=O)c1F [Compound T030, 3-((2-fluoro-3-methoxybenzyl)oxy)-5-(3-(4-(pyrrolidin-1-yl)butyl)ureido)isothiazole-4-carboxamide] | 1520 µg/mL (≈ 3260 µM) | 4.66 | 7.46 | – | 0.0232 | – | –
3 | NC(=O)c1c(OCc2ccc3ccoc3c2)nsc1NC(=O)NCCCCN1CCCC1 [Compound T054, 3-(benzofuran-6-ylmethoxy)-5-(3-(4-(pyrrolidin-1-yl)butyl)ureido)isothiazole-4-carboxamide] | – | – | 7.75 | 6.80 | – | 7.46 | 7.41
4 | NC(=O)c1c(OCc2cccc(C(=O)NC3CC3)c2)nsc1NC(=O)NCCCN1CCCC1 [Compound T067, 3-((3-(cyclopropylcarbamoyl)benzyl)oxy)-5-(3-(3-(pyrrolidin-1-yl)propyl)ureido)isothiazole-4-carboxamide] | 977 µg/mL (≈ 2010 µM) | < 4.22 | 8.05 | – | – | 8.03 | 7.52
5 | NC(=O)c1c(OCc2ccc3c(c2)COC3)nsc1NC(=O)NCCCCN1CCCC1 [Compound T072, 3-((1,3-dihydroisobenzofuran-5-yl)methoxy)-5-(3-(4-(pyrrolidin-1-yl)butyl)ureido)isothiazole-4-carboxamide] | 2060 µg/mL (≈ 4480 µM) | 4.36 | – | – | 0.0196 | – | –
6 | NC(=O)c1c(OCc2ccc3c(c2F)OCC3)nsc1NC(=O)NCCCCN1CCCC1 [Compound T074, 3-((7-fluoro-2,3-dihydrobenzofuran-6-yl)methoxy)-5-(3-(4-(pyrrolidin-1-yl)butyl)ureido)isothiazole-4-carboxamide] | 133 µg/mL (≈ 278 µM) | – | 7.58 | – | 0.0462 | – | –
7 | NC(=O)c1c(OCc2cc3c(cc2F)CCO3)nsc1NC(=O)NCCCN1CC[C@@H](F)C1 [Compound T080, 3-[(5-fluoro-2,3-dihydrobenzofuran-6-yl)methoxy]-5-[3-[(3R)-3-fluoropyrrolidin-1-yl]propylcarbamoylamino]isothiazole-4-carboxamide] | – | 5.09 | – | 7.06 | 0.0582 | 7.87 | 7.58
8 | NC(=O)c1c(OCc2cc3c(cc2F)CCO3)nsc1NC(=O)NCCN1CC[C@@H](F)C1 [Compound T081, 3-[(5-fluoro-2,3-dihydrobenzofuran-6-yl)methoxy]-5-[2-[(3R)-3-fluoropyrrolidin-1-yl]ethylcarbamoylamino]isothiazole-4-carboxamide] | – | 4.71 | 7.80 | – | 0.0632 | 7.66 | 7.62
9 | NC(=O)c1c(OCc2ccc3c(c2)OCC3)nsc1NC(=O)NCCC1CCN(C2CC2)CC1 [Compound T083, 5-[2-(1-cyclopropyl-4-piperidyl)ethylcarbamoylamino]-3-(2,3-dihydrobenzofuran-6-ylmethoxy)isothiazole-4-carboxamide] | – | 4.74 | 7.90 | 6.78 | 0.0749 | 7.59 | 7.65
10 | NC(=O)c1c(OCc2ccc3c(c2)OCC3)nsc1NC(=O)NCCC1CCN(CCF)CC1 [Compound T084, 3-(2,3-dihydrobenzofuran-6-ylmethoxy)-5-[2-[1-(2-fluoroethyl)-4-piperidyl]ethylcarbamoylamino]isothiazole-4-carboxamide] | – | 4.80 | 7.85 | 6.66 | – | 7.52 | 7.43
11 | NC(=O)c1c(OCc2cc(F)cc(C(=O)NC3CC3)c2)nsc1NC(=O)NCCCCN1CCCC1 [Compound T085, 3-[[3-(cyclopropylcarbamoyl)-5-fluoro-phenyl]methoxy]-5-(4-pyrrolidin-1-ylbutylcarbamoylamino)isothiazole-4-carboxamide] | – | < 4.22 | 8.77 | 5.34 | 0.0612 | 8.31 | 7.98
12 | NC(=O)c1c(OCc2cc(C(=O)NC3CC3)cc(F)c2F)nsc1NC(=O)NCCCCN1CCCC1 [Compound T133, 3-[[5-(cyclopropylcarbamoyl)-2,3-difluoro-phenyl]methoxy]-5-(4-pyrrolidin-1-ylbutylcarbamoylamino)isothiazole-4-carboxamide] | 757 µg/mL (≈ 1410 µM) | 4.67 | 9.30 | – | – | – | –

Next, values leading:

Row | solubility at 8 h [1] | pIC50 (EGFR) | pIC50 (VEGFR2) | pIC50 (TIE2) | fraction unbound at 2 h, 2 μM (melanin) | pIC50 (VEGFR1) | pIC50 (VEGFR3) | Structure (SMILES)
13 | 1170 µg/mL (≈ 2450 µM) | 4.46 | 7.32 | – | – | – | – | COc1cc(COc2nsc(NC(=O)NCCCCN3CCCC3)c2C(N)=O)cc(OC)c1 [Compound T006, 3-((3,5-dimethoxybenzyl)oxy)-5-(3-(4-(pyrrolidin-1-yl)butyl)ureido)isothiazole-4-carboxamide]
14 | 608 µg/mL (≈ 1320 µM) | – | 7.37 | 6.32 | – | – | – | NC(=O)c1c(OCc2ccc3c(c2)OCO3)nsc1NC(=O)NCCCCN1CCCC1 [Compound T007, 3-(benzo[d][1,3]dioxol-5-ylmethoxy)-5-(3-(4-(pyrrolidin-1-yl)butyl)ureido)isothiazole-4-carboxamide]
15 | 478 µg/mL (≈ 953 µM) | – | – | – | 0.0421 | – | – | NC(=O)c1c(OCc2ccc(OC(F)F)c(F)c2)nsc1NC(=O)NCCCCN1CCCC1 [Compound T027, 3-((4-(difluoromethoxy)-3-fluorobenzyl)oxy)-5-(3-(4-(pyrrolidin-1-yl)butyl)ureido)isothiazole-4-carboxamide]
16 | 2310 µg/mL (≈ 4880 µM) | – | 7.70 | 5.12 | – | 7.67 | – | CNC(=O)c1cccc(COc2nsc(NC(=O)NCCCCN3CCCC3)c2C(N)=O)c1 [Compound T049, 3-((3-(methylcarbamoyl)benzyl)oxy)-5-(3-(4-(pyrrolidin-1-yl)butyl)ureido)isothiazole-4-carboxamide]
17 | – | 4.81 | 7.62 | 6.69 | 0.0757 | 7.56 | 7.31 | NC(=O)c1c(OCc2cc3c(cc2F)CCO3)nsc1NC(=O)NCCN1CCCCC1 [Compound T082, 3-[(5-fluoro-2,3-dihydrobenzofuran-6-yl)methoxy]-5-[2-(1-piperidyl)ethylcarbamoylamino]isothiazole-4-carboxamide]
18 | – | 4.82 | 8.17 | 6.87 | 0.0235 | 7.87 | 8.00 | CN1CCC(CCNC(=O)Nc2snc(OCc3cc(F)c4c(c3)OCC4)c2C(N)=O)CC1 [Compound T089, 3-((4-fluoro-2,3-dihydrobenzofuran-6-yl)methoxy)-5-(3-(2-(1-methylpiperidin-4-yl)ethyl)ureido)isothiazole-4-carboxamide]
19 | 1640 µg/mL (≈ 3040 µM) | – | 8.52 | 6.62 | 0.0362 | – | – | CCNC(=O)c1ccc(F)c(COc2nsc(NC(=O)NCCC3CCN(CCF)CC3)c2C(N)=O)c1 [Compound T127, 3-[[5-(ethylcarbamoyl)-2-fluoro-phenyl]methoxy]-5-[2-[1-(2-fluoroethyl)-4-piperidyl]ethylcarbamoylamino]isothiazole-4-carboxamide]
